Assay results taken from PubChem BioAssay (NCI).
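Tested at 5 concentrations; 48 h exposure; 96-well plates; endpoints linearly interpolated, else capped at highest concentration. Definition used: TGI = concentration required for complete inhibition of growth.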

Tests used:
Assay in all cases: NCI anticancer screen, dose series, 48 h
SF-539 CNS = tested on: SF-539 CNS
786-0 renal = tested on: 786-0 renal
SW-620 colon = tested on: SW-620 colon
SK-OV-3 ovarian = tested on: SK-OV-3 ovarian
OVCAR-4 ovarian = tested on: OVCAR-4 ovarian
SF-295 CNS = tested on: SF-295 CNS
SR leukemia = tested on: SR leukemia
SF-268 CNS = tested on: SF-268 CNS
HCT-15 colon = tested on: HCT-15 colon
EKVX NSCLC = tested on: EKVX NSCLC
SK-MEL-2 melanoma = tested on: SK-MEL-2 melanoma
MALME-3M melanoma = tested on: MALME-3M melanoma
MDA-MB-231 breast = tested on: MDA-MB-231 breast
BT-549 breast = tested on: BT-549 breast
RXF 393 renal = tested on: RXF 393 renal
MCF7 breast = tested on: MCF7 breast

Structure (SMILES) | TGI (SF-539 CNS) [µM] | TGI (786-0 renal) [µM] | TGI (SW-620 colon) [µM] | TGI (SK-OV-3 ovarian) [µM] | TGI (OVCAR-4 ovarian) [µM] | TGI (SF-295 CNS) [µM] | TGI (SR leukemia) [µM] | TGI (SF-268 CNS) [µM] | TGI (HCT-15 colon) [µM] | TGI (EKVX NSCLC) [µM] | TGI (SK-MEL-2 melanoma) [µM] | TGI (MALME-3M melanoma) [µM] | TGI (MDA-MB-231 breast) [µM] | TGI (BT-549 breast) [µM] | TGI (RXF 393 renal) [µM] | TGI (MCF7 breast) [µM]
COC(=O)C1CC(=O)CCC1c1ccccc1 (stereo not given) | > 100 | > 100 | > 100 | > 100 | > 100 | > 100 | > 100 | > 100 | > 100 | > 100 | > 100 | > 100 | – | – | – | –
COc1ccc(-c2cc(-c3ccc(Cl)cc3)n(C3OC(CO)C(O)C(O)C3O)c(=S)c2C#N)cc1 (stereo not given) | > 100 | 35.5 | > 100 | > 100 | > 100 | > 100 | > 100 | > 100 | > 100 | – | 97.9 | – | > 100 | > 100 | – | –
C=CCC1C(=O)C(C(=O)OC)N2CCc3c([nH]c4ccccc34)C12 (stereo not given) | > 100 | > 100 | > 100 | > 100 | > 100 | > 100 | > 100 | > 100 | > 100 | > 100 | > 100 | > 100 | – | – | > 100 | –
C#CCSc1nc(N)c2ncn(C3OC(CO)C(O)C3O)c2n1 (stereo not given) | – | > 100 | > 100 | – | > 100 | > 100 | > 100 | > 100 | > 100 | > 100 | – | > 100 | – | – | > 100 | –
O=C1CSC(/C(=C/c2ccccc2)c2nc3ccccc3[nH]2)=N1 | 74.4 | > 100 | > 100 | 59.5 | > 100 | > 100 | > 100 | > 100 | > 100 | > 100 | > 100 | > 100 | – | – | – | –
Oc1[nH]c2ccccc2c1N=NC(=S)N1CCCCC1 | 1.49 | 6.64 | 8.63 | 7.62 | 4.48 | 3.36 | 4.31 | 14.3 | 2.42 | 9.75 | 6.12 | 2.2 | 2.79 | – | 2.65 | 6.26
O=C(CC(=O)C(=O)Nc1ccccc1)CC(c1ccccc1)c1c(O)c2ccccc2oc1=O (stereo not given) | > 100 | > 100 | > 100 | > 100 | – | > 100 | – | > 100 | > 100 | > 100 | > 100 | > 100 | – | – | > 100 | –
CCCCC1Cc2ccccc2-c2n1c1ccccc1[n+]2C (stereo not given) | > 100 | > 100 | > 100 | > 100 | > 100 | > 100 | 58.5 | > 100 | > 100 | > 100 | 35.7 | – | > 100 | – | > 100 | > 100
O=C(O)c1c[nH]c2c(=O)[nH]cnc12 | – | > 100 | > 100 | > 100 | – | > 100 | > 100 | > 100 | > 100 | > 100 | > 100 | > 100 | – | – | > 100 | –
